These results are taken from the Bradley open melting point set (2014).

The structures appear in SMILES notation. Counter-ions that a name gives are not always drawn.

In the case of `O=C(O)c1cc(Cl)cc(Cl)c1` [3,5-dichlorobenzoic acid], the melting point (commonly the temperature of the solid-liquid transition) stood at 186 °C. With `O=C[C@@H](O)[C@H](O)[C@@H](O)[C@@H](O)CO` [L-Glucose] the figure was 150 °C; with `CCCCCCCC(=O)O` [Caprylic acid], 16.3 °C; with `CCC(=O)C1(c2cccc(O)c2)CCN(C)CC1` [ketobemidone], 156 °C. `OC(c1ccccc1)(c1ccccc1)C(O)(c1ccccc1)c1ccccc1` [1,1,2,2-Tetraphenylethane-1,2-diol] came in with a melting point of 171 °C. In turn, `N[C@@H](CO)C(=O)O` [L-Serine] returned a melting point of 222 °C. The value for `CC[C@@]1(O)C(=O)OCc2c1cc1n(c2=O)Cc2cc3ccccc3nc2-1` [Camptothecin] was 276 °C; that for `CCCCCCOCCO` [2-(n-hexyloxy)ethanol] was -42 °C; that for `Nc1ccc(C(=O)O)cc1` [4-aminobenzoic acid] was 188 °C.

Consider `CN=C=O` [Isocyanatomethane], for which the melting point was -80 °C. `CC(=O)N[C@@H](CCC(=O)O)C(=O)O` [N-acetyl-l-glutamic acid] came in with a melting point of 197 °C. With `COc1cc(C)c(C=CC(C)=CC=CC(C)=CC(=O)O)c(C)c1C` [acitretin] the figure was 228 °C; with `CCC(C)Br` (stereo unspecified) [2-bromobutane], -112 °C. With `ClC1=C(Cl)C2(Cl)C3C4OC4C(Cl)C3C1(Cl)C2(Cl)Cl` (stereo unspecified) [Heptachlor epoxide] the figure was 160 °C. For the compound `COc1cccc(C(CC(=O)O)NC(=O)OC(C)(C)C)c1` (stereo unspecified) [3-(boc-amino)-3-(3-methoxyphenyl)propionic acid], the melting point came out at 82 °C. For the compound `CCCC(C)C1(CC)C(=O)NC(=O)NC1=O` (stereo unspecified) [pentobarbital], the melting point is 130 °C. Turning to `O=C1Nc2ccc(Cl)cc2C(c2ccccc2Cl)=NC1O` (stereo unspecified) [lorazepam], the melting point amounted to 166 °C.

The compound `Cc1cccc2ccccc12` [1-Methylnaphthalene] displayed a melting point of -22 °C. The value for `CCCCCBr` [1-bromopentane] was -95 °C.

`ClC(Cl)(Cl)Cl` [Tetrachloromethane] yielded a melting point of -23 °C. The compound `N#Cc1ccc(Oc2ccnc3ccccc23)cc1C#N` [4-(Quinolin-4-yloxy)phthalonitrile] had a melting point of 175 °C. With `CC(CN(C)C)CN1c2ccccc2CCc2ccccc21` (stereo unspecified) [trimipramine] the figure was 45 °C.

Turning to `CCCC(C)(COC(N)=O)COC(=O)NC(C)C` (stereo unspecified) [carisoprodol], the melting point was 92 °C. The value for `C=CCC(C)C` [4-methyl-1-pentene] was -153 °C; that for `CCC/C=C/CCC` [trans-4-octene] was -94 °C; that for `Nc1cccc(Cl)c1` [m-chloroaniline] was -10 °C.

`C[C@H]1C[C@H]2[C@@H]3CCC4=CC(=O)C=C[C@]4(C)[C@@]3(F)[C@@H](O)C[C@]2(C)[C@@]1(O)C(=O)CO` [Betamethasone] showed a melting point of 232 °C.

`OB(O)c1ccc(Cl)nc1` [6-chloropyridine-3-boronic acid] showed a melting point of 156 °C.

`Oc1cccc(C2CNCCN2)c1` (stereo unspecified) [3-(2-piperazinyl)phenol]: the melting point is 184 °C. With `CC(=O)c1ccc(C)cc1` [4'-methylacetophenone] the figure was -19 °C; with `C=CC=O` [Acrylaldehyde], -87 °C; with `Cc1ccc(/C=C(\Oc2cccc(C)c2)c2nc3ccccc3s2)cc1`, 138 °C. `CCC(CC)CO` [2-ethyl-1-butanol] displayed a melting point of -52 °C. Consider `OCCN1CCN(CCCN2c3ccccc3Sc3ccc(Cl)cc32)CC1` [perphenazine], for which the melting point stood at 96.9 °C. With `NC(N)=S` [thiourea] the figure was 177 °C; with `COc1cc(C=O)ccc1O` [vanillin], 82 °C; with `CCCCCCCC(=O)O` [octanoic_acid], 17 °C. The value for `COCC(C)O` (stereo unspecified) [1-Methoxypropan-2-ol] was -97 °C; that for `Nc1cc(Cl)ccc1[N+](=O)[O-]` [5-Chlor-2-nitroanilin] was 119 °C; that for `CCCC(=O)Nc1ccc(OCC(O)CNC(C)C)c(C(C)=O)c1` (stereo unspecified) [Acebutolol] was 121 °C. The value for `Brc1ccccc1Br` [o-dibromobenzene] was 7 °C.

`C1CCCC1` [Cyclopentane] registered a melting point of -94 °C. The value for `NC(=O)Cc1ccc(O)cc1` [4-hydroxyphenylacetamide] was 174 °C. With `C[Si]1(C)O[Si](C)(C)O[Si](C)(C)O1` [hexamethylcyclotrisiloxane] the figure was 65 °C. The compound `COc1cccc(C(=O)O)c1` [3-methoxybenzoic acid] yielded a melting point of 106 °C. The value for `CCOC(=O)C1=CC(C)N=N1` (stereo unspecified) [Ethyl 5-methyl-1H-pyrazole-3-carboxylate] was 82 °C; that for `COC(=O)c1cc(Cl)ccc1[N+](=O)[O-]` [methyl 5-chloro-2-nitrobenzoate] was 49 °C. `O[C@H]1[C@H](O)[C@@H](O)[C@H](O)[C@@H](O)[C@H]1O` [myo-inositol] showed a melting point of 226 °C. `CCCBr` [1-bromopropane] gave a melting point of -110 °C. `C=CCc1ccc(O)c(OC)c1` [4-Allyl-2-methoxyphenol] displayed a melting point of -9 °C. Consider `Nc1cnc2ccccc2c1` [3-aminoquinoline], for which the melting point was found to be 94 °C. `Oc1ccc(Cl)cc1-c1ccno1` [4-chloro-2-(5-isoxazolyl)phenol]: the melting point turned out to be 202 °C. With `O=[N+]([O-])c1cc[n+]([O-])c2ccccc12` [4-nitroquinoline n-oxide] the figure was 155 °C; with `Cc1c(C)c(C)c(C=O)c(C)c1C` [Pentamethylbenzaldehyde], 133 °C. With `O=c1c2ccccc2sc2ccccc12` [Thiaxanthone] the figure was 210 °C.

`O=C1C(c2ccccc2)=C(c2ccccc2)C(c2ccccc2)=C1c1ccccc1` [2,3,4,5-Tetraphenylcyclopenta-2,4-dien-1-one] gave a melting point of 218 °C. Turning to `CC(C)(C)OC(=O)Nc1ccccc1B(O)O` [2-(boc-amino)benzeneboronic acid], the melting point worked out at 124 °C.

The compound `COC(=O)c1cc2ccccc2c(OC(=O)c2ccccc2C)c1C(=O)OC` gave a melting point of 139 °C. `Clc1ccc(Cl)cc1` [1,4-dichlorobenzene] returned a melting point of 54 °C. `O=C(O)C(Br)(Br)Br` [tribromoacetic acid] displayed a melting point of 132 °C.

`CC(=O)c1cccc([N+](=O)[O-])c1` [3'-nitroacetophenone] registered a melting point of 78 °C. With `O=C(O)CCCCc1ccccc1` [5-phenylvaleric acid] the figure was 59 °C.

In turn, `C/C=C/C1Nn2c(nnc2-c2cccnc2)S1` (stereo unspecified) came in with a melting point of 121 °C. Consider `CCOC(=O)/C=CC(=O)OCC` [diethyl maleate], for which the melting point is -11 °C. In turn, `Cc1cc(C=O)c(C)n1-c1ccc(F)cc1` [OSM-S-02] gave a melting point of 118 °C. With `Cc1cc(O)n2ncnc2n1` [7-hydroxy-5-methyl[1,2,4]triazolo[1,5-a]pyrimidine] the figure was 283 °C.
